# Laboratory results reported in US10611731B2, “5-methyl-6-phenyl-4,5-dihydro-2H-pyridazin-3-one derivative” (OTSUKA PHARMACEUTICAL CO., LTD., priority 2016, dated 2020).
# Tested on: human childhood brain tumor cell lines (PFSK-1)
# Assay: Growth inhibitory activity against PFSK-1 cells (WST-8, Cell Counting Kit-8)
# Type: cell-based
# Conditions: Homo sapiens, 72 h, 3 days incubation with test compound, WST-8 OD 450/630 nm, read-out: IC50 (concentration inhibiting 50% of the cell growth)
# Protocol: The growth inhibitory activity against human childhood brain tumor cell lines (PFSK-1) was measured with WST-8 reagent [2-(2-methoxy-4-nitrophenyl)-3-(4-nitrophenyl)-5-(2,4-disulfophenyl)-2H-tetrazolium monosodium salt, Cell Counting Kit-8™], according to the method described in Tominaga, H. et al., Anal. Commun., 1999, 36, 47-50. Briefly, PFSK-1 was seeded in 96-well microplate at 100 μL/well with Roswell Park Memorial Institute (RPMI) 1640 medium containing 10% fetal bovine serum (FBS), and the cells were incubated in the presence of 5% carbon dioxide (CO2) at 37° C. for 24 hours. 50 μL of each test compound diluted with the medium was added to each well, and then the cells were incubated further for 3 days. After the incubation, 15 μL of Cell Counting Kit-8™ was added to each well, and the cells were incubated for one and half hours. Then, optical density (OD) values at measurement wavelength 450 nm and reference wavelength 630 nm were measured and the difference thereof was calculated. From the calculated difference, the OD value difference (at measurement wavelength 450 nm and reference wavelength 630 nm) of the control well which includes no cell was subtracted to afford cell-growth activity in each well.
# The cell growth inhibitory activity of each test compound was calculated by comparing the cell-growth activity with each test compound to the cell-growth activity without any test compound (control), and each IC50 (nM) which is the concentration inhibiting 50% of the cell growth was calculated.
row,IC50 [nM],Compound
1,1.5,"Cc1cc(C2=NNC(=O)C[C@H]2C)cc(F)c1OCC(C)(C)CO [Example 125, (5R)-(−)-6-[3-fluoro-4-(3-hydroxy-2,2-dimethylpropoxy)-5-methylphenyl]-5-methyl-4,5-dihydro-2H-pyridazin-3-one]"
2,3.8,"C[C@@H]1CC(=O)NN=C1c1cc(F)c(OCCCO)c(F)c1 [Example 121, (5R)-(−)-6-[3,5-Difluoro-4-(3-hydroxypropoxy)phenyl]-5-methyl-4,5-dihydro-2H-pyridazin-3-one]"
3,1,"Cc1cc(C2=NNC(=O)CC2C)cc(Cl)c1OCC(C)CO (stereo not drawn) [Example 142, 6-[3-chloro-4-(3-hydroxy-2-methylpropoxy)-5-methylphenyl]-5-methyl-4,5-dihydro-2H-pyridazin-3-one]"
4,3.1,"CC1CC(=O)NN=C1c1ccc(OC/C=C\CO)c(F)c1F (stereo not drawn) [Example 93, 6-{2,3-Difluoro-4-[(Z)-4-hydroxy-2-butenyloxy]phenyl}-5-methyl-4,5-dihydro-2H-pyridazin-3-one]"
5,3.3,"Cc1c(OCC(C)(C)O)ccc(C2=NNC(=O)C[C@H]2C)c1O [Example 179, (5R)-(−)-6-[2-hydroxy-4-(2-hydroxy-2-methylpropoxy)-3-methylphenyl]-5-methyl-4,5-dihydro-2H-pyridazin-3-one]"
6,8.8,"CC1CC(=O)NN=C1c1cc(F)c(OCC(O)(C(F)(F)F)C(F)(F)F)c(Cl)c1 (stereo not drawn) [Example 37, 6-{3-Chloro-5-fluoro-4-[3,3,3-trifluoro-2-hydroxy-2-(trifluoromethyl)propoxy]phenyl}-5-methyl-4,5-dihydro-2H-pyridazin-3-one]"
7,1.3,"Cc1cc(C2=NNC(=O)CC2C)c(F)c(Cl)c1OCC1(O)CC1 (stereo not drawn) [Example 167, 6-{3-Chloro-2-fluoro-4-[(1-hydroxycyclopropyl)methoxy]-5-methylphenyl}-5-methyl-4,5-dihydro-2H-pyridazin-3-one]"
8,4.3,"Cc1cc(C2=NNC(=O)CC2C)cc(C)c1OCC1(O)CC1 (stereo not drawn) [Example 43, 6-{4-[(1-Hydroxycyclopropyl)methoxy]-3,5-dimethylphenyl}-5-methyl-4,5-dihydro-2H-pyridazin-3-one]"
9,3.9,"CC1CC(=O)NN=C1c1ccc(OC/C=C/CO)c(Cl)c1F (stereo not drawn) [Example 90, 6-[3-Chloro-2-fluoro-4-[(E)-4-hydroxy-2-butenyloxy]phenyl}-5-methyl-4,5-dihydro-2H-pyridazin-3-one]"
10,5.2,"CC(O)COc1ccc(C2=NNC(=O)CC2C)c(F)c1C#N (stereo not drawn) [Example 104, 2-fluoro-6-(2-hydroxypropoxy)-3-(4-methyl-6-oxo-4,5-dihydro-1H-pyridazin-3-yl)benzonitrile]"
11,2.3,"CC1CC(=O)NN=C1c1ccc(OCC2(O)CC2)c(Br)c1F (stereo not drawn) [Example 168, 6-{3-Bromo-2-fluoro-4-[(1-hydroxycyclopropyl)methoxy]phenyl}-5-methyl-4,5-dihydro-2H-pyridazin-3-one]"
12,6.4,"CC1CC(=O)NN=C1c1ccc(OCCCO)c(C#N)c1F (stereo not drawn) [Example 106, 2-fluoro-6-(3-hydroxypropoxy)-3-(4-methyl-6-oxo-4,5-dihydro-1H-pyridazin-3-yl)benzonitrile]"
13,3,"CC1CC(=O)NN=C1c1cc(F)c(OC/C=C\CO)c(Br)c1 (stereo not drawn) [Example 95, 6-{3-Bromo-5-fluoro-4-[(Z)-4-hydroxy-2-butenyloxy]phenyl}-5-methyl-4,5-dihydro-2H-pyridazin-3-one]"
14,2.8,"Cc1c(OCC(C)O)ccc(C2=NNC(=O)CC2C)c1F (stereo not drawn) [Example 58, 6-[2-Fluoro-4-(2-hydroxypropoxy)-3-methylphenyl]-5-methyl-4,5-dihydro-2H-pyridazin-3-one]"
15,2.7,"CC1CC(=O)NN=C1c1cc(F)c(OCC(C)(C)CO)c(Cl)c1F (stereo not drawn) [Example 139, 6-[3-Chloro-2,5-difluoro-4-(3-hydroxy-2,2-dimethylpropoxy)phenyl]-5-methyl-4,5-dihydro-2H-pyridazin-3-one]"
16,3.2,"CC(O)COc1ccc(C2=NNC(=O)CC2C)c(O)c1Cl (stereo not drawn) [Example 75, 6-[3-Chloro-2-hydroxy-4-(2-hydroxypropoxy)phenyl]-5-methyl-4,5-dihydro-2H-pyridazin-3-one]"
17,2,"CC1CC(=O)NN=C1c1cc(F)c(OCC(C)(C)O)c(Br)c1 (stereo not drawn) [Example 26, 6-[3-bromo-5-fluoro-4-(2-hydroxy-2-methylpropoxy)phenyl]-5-methyl-4,5-dihydro-2H-pyridazin-3-one]"
18,3.9,"Cc1cc(C2=NNC(=O)C[C@H]2C)c(O)c(Cl)c1OCCCO [Example 181, (5R)-(−)-6-[3-chloro-2-hydroxy-4-(3-hydroxypropoxy)-5-methylphenyl]-5-methyl-4,5-dihydro-2H-pyridazin-3-one]"
19,3.9,"Cc1cc(C2=NNC(=O)CC2C)cc(C)c1OCC(C)(C)CO (stereo not drawn) [Example 71, 6-[4-(3-Hydroxy-2,2-dimethylpropoxy)-3,5-dimethylphenyl]-5-methyl-4,5-dihydro-2H-pyridazin-3-one]"
20,5.1,"Cc1cc(C2=NNC(=O)CC2C)cc(F)c1OCC(C)(C)O (stereo not drawn) [Example 33, 6-[3-Fluoro-4-(2-hydroxy-2-methylpropoxy)-5-methylphenyl]-5-methyl-4,5-dihydro-2H-pyridazin-3-one]"
21,5.3,"CC1CC(=O)NN=C1c1ccc(OCC(C)(C)CO)c(Br)c1F (stereo not drawn) [Example 70, 6-[3-Bromo-2-fluoro-4-(3-hydroxy-2,2-dimethylpropoxy)phenyl]-5-methyl-4,5-dihydro-2H-pyridazin-3-one]"
22,1.9,"Cc1cc(C2=NNC(=O)CC2C)c(F)c(Cl)c1OCCCO (stereo not drawn) [Example 22, 6-[3-chloro-2-fluoro-4-(3-hydroxypropoxy)-5-methylphenyl]-5-methyl-4,5-dihydro-2H-pyridazin-3-one]"
23,4.2,"Cc1cc(C2=NNC(=O)CC2C)cc(Cl)c1OCC1(CO)CC1 (stereo not drawn) [Example 144, 6-{3-Chloro-4-[1-(hydroxymethyl)cyclopropylmethoxy]-5-methylphenyl}-5-methyl-4,5-dihydro-2H-pyridazin-3-one]"
24,4.7,"Cc1c(OCC2(O)CC2)ccc(C2=NNC(=O)CC2C)c1O (stereo not drawn) [Example 166, 6-{2-Hydroxy-4-[(1-hydroxycyclopropyl)methoxy]-3-methylphenyl}-5-methyl-4,5-dihydro-2H-pyridazin-3-one]"
25,3.7,"CC1CC(=O)NN=C1c1ccc(OCCCO)c(F)c1F (stereo not drawn) [Example 10, 6-[2,3-Difluoro-4-(3-hydroxypropoxy)phenyl]-5-methyl-4,5-dihydro-2H-pyridazin-3-one]"
26,5.2,"Cc1c(F)c(C2=NNC(=O)CC2C)cc(Cl)c1OCC(C)(C)CO (stereo not drawn) [Example 136, 6-[5-Chloro-2-fluoro-4-(3-hydroxy-2,2-dimethylpropoxy)-3-methylphenyl]-5-methyl-4,5-dihydro-2H-pyridazin-3-one]"
27,2,"CC1CC(=O)NN=C1c1cc(F)c(OCCCO)c(Cl)c1F (stereo not drawn) [Example 140, 6-[3-chloro-2,5-difluoro-4-(3-hydroxypropoxy)phenyl]-5-methyl-4,5-dihydro-2H-pyridazin-3-one]"
28,2.7,"CC1CC(=O)NN=C1c1cc(F)c(OCC(F)(F)CO)c(Cl)c1F (stereo not drawn) [Example 161, 6-[3-Chloro-4-(2,2-difluoro-3-hydroxypropoxy)-2,5-difluorophenyl]-5-methyl-4,5-dihydro-2H-pyridazin-3-one]"
29,2.9,"CC1CC(=O)NN=C1c1ccc(OC[C@H]2C[C@H]2CO)c(Cl)c1F (relative stereo) [Example 154, 6-(3-Chloro-2-fluoro-4-{[(1S*,2R*)-2-(hydroxymethyl)cyclopropyl]methoxy}phenyl)-5-methyl-4,5-dihydro-2H-pyridazin-3-one]"

row,Compound,IC50 [nM]
1,"Cc1cc(C2=NNC(=O)CC2C)cc(Cl)c1OCCC(C)O (stereo not drawn) [Example 143, 6-[3-Chloro-4-(3-hydroxybutoxy)-5-methylphenyl]-5-methyl-4,5-dihydro-2H-pyridazin-3-one]",6.9
2,"CCc1c(OCCCCO)ccc(C2=NNC(=O)CC2C)c1F (stereo not drawn) [Example 97, 6-[3-Ethyl-2-fluoro-4-(4-hydroxybutoxy)phenyl]-5-methyl-4,5-dihydro-2H-pyridazin-3-one]",8.6
3,"CCC(O)COc1c(Cl)cc(C2=NNC(=O)CC2C)cc1Br (stereo not drawn) [Example 66, 6-[3-Bromo-5-chloro-4-(2-hydroxybutoxy)phenyl]-5-methyl-4,5-dihydro-2H-pyridazin-3-one]",4.1
4,"Cc1cc(C2=NNC(=O)CC2C)cc(F)c1OCC(C)(C)CCO (stereo not drawn) [Example 101, 6-[3-Fluoro-4-(4-hydroxy-2,2-dimethylbutoxy)-5-methylphenyl]-5-methyl-4,5-dihydro-2H-pyridazin-3-one]",7.5
5,"CC1CC(=O)NN=C1c1ccc(OCCCCO)c(F)c1F (stereo not drawn) [Example 82, 6-[2,3-Difluoro-4-(4-hydroxybutoxy)phenyl]-5-methyl-4,5-dihydro-2H-pyridazin-3-one]",6
6,"CC1CC(=O)NN=C1c1ccc(OCCCCO)c(Cl)c1F (stereo not drawn) [Example 84, 6-[3-Chloro-2-fluoro-4-(4-hydroxybutoxy)phenyl]-5-methyl-4,5-dihydro-2H-pyridazin-3-one]",3.3
7,"C=Cc1c(OCC(O)CC)ccc(C2=NNC(=O)CC2C)c1F (stereo not drawn) [Example 67, 6-[2-Fluoro-4-(2-hydroxybutoxy)-3-vinylphenyl]-5-methyl-4,5-dihydro-2H-pyridazin-3-one]",3.6
